Results on 13 compounds are retold here after patent US7351703B2, “Sulfonylamino carboxylic acid N-arylamides as guanylate cyclase activators” (Sanofi-Aventis Deutschland GmbH, priority 1999, dated 2008).

Data set [1] concerns the target T1, soluble guanylate cyclase (sGC) (Bos taurus, UniProt P16068).
T1 construct: The sGC employed had been isolated from bovine lung; from tissue; host or cells: bovine lung
T1 sequence (P16068 1-619): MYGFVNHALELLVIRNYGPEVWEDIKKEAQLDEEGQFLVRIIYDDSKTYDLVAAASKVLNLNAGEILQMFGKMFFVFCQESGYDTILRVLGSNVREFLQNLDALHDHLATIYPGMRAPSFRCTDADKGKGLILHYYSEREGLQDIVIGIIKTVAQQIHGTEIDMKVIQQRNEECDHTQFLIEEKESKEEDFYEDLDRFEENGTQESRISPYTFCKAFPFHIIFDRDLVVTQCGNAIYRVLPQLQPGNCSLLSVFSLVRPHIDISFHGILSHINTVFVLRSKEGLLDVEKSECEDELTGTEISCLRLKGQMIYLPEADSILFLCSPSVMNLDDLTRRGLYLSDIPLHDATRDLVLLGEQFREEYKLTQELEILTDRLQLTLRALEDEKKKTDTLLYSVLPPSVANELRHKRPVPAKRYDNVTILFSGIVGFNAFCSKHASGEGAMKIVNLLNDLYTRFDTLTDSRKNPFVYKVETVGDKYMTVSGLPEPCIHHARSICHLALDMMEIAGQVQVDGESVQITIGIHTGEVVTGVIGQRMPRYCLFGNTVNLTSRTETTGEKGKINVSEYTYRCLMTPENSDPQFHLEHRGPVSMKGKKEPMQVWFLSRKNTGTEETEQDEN
T1 sequence (P19687 1-691 partner): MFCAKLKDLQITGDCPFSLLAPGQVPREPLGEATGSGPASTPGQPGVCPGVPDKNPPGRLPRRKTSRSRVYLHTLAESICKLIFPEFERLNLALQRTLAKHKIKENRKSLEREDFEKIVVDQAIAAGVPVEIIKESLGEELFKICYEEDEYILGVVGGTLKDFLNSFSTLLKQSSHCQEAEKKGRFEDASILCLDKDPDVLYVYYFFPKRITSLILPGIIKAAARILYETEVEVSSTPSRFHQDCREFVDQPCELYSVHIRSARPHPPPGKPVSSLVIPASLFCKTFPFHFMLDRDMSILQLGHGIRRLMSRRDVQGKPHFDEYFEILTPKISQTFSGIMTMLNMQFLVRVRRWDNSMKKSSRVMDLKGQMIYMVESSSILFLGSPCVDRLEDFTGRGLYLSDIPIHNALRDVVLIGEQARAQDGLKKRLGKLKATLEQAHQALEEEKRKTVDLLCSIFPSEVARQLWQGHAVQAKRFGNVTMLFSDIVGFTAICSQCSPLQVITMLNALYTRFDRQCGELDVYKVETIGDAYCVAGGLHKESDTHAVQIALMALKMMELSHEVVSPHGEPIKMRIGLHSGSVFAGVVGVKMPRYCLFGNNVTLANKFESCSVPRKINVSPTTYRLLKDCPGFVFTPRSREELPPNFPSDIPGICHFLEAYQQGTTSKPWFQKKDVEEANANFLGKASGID
The data set is described as follows: Activation of soluble guanylate cyclase (cGMP enzyme immunoassay). The data set is classed as biochemical. Particulars: sGC isolated from bovine lung, stimulation of basal enzyme activity vs solvent control. The method, then:
The activation of soluble guanylate cyclase (sGC), which catalyzes the conversion of guanosine triphosphate (GTP) to cyclic guanosine monophosphate (cGMP) and pyrophosphate, by the compounds according to the invention was quantified with the aid of an enzyme immunoassay (EIA) from Amersham. For this, the test substances were first incubated with sGC in microtiter plates and then the quantity of the resulting cGMP was determined.
The sGC employed had been isolated from bovine lung (see Methods in Enzymology, Volume 195, p. 377). The test solutions (100 μl per well) contained 50 mM triethanolamine (TEA) buffer (pH 7.5), 3 mM MgCl2, 3 mM reduced glutathione (GSH), 0.1 mM GTP, 1 mM 3-isobutyl-1-methylxanthine (IBMX), suitably diluted enzyme solution and the test substance or, in the control experiments, solvent. The test substances were dissolved in dimethyl sulfoxide (DMSO) and the solution was diluted with DMSO/water such that the final concentration c of test substance in the test batch had the value indicated below. The DMSO concentration in the test batch was 5% (v/v). The reaction was started by addition of the sGC. The reaction mix was incubated at 37° C. for 15 to 20 minutes and then stopped by ice-cooling and addition of the stop reagent (50 mM EDTA, pH 8.0). An aliquot of 50 μl was taken and employed for the determination of the cGMP content using the acetylation protocol of the Amersham cGMP EIA kit. The absorption of the samples was measured at 450 nm (reference wavelength 620 nm) in a microtiter plate reading apparatus. The cGMP concentration was determined by means of a calibration curve, which was obtained under the same experimental conditions. The activation of the sGC by a test substance is indicated as n-fold stimulation of the basal enzyme activity which was found in the control experiments (with solvent instead of test substance) (calculated according to the formula n-fold stimulation=[cGMP]test substance/[cGMP]control).

For orientation: melting point means the temperature of the solid-liquid transition.

The compound `O=C(Nc1ccc(Oc2ccccc2)cc1)c1ccccc1NS(=O)(=O)c1ccc(Cl)cc1` [Example 7, 2-(4-Chlorophenylsulfonylamino)-N-(4-phenoxyphenyl)benzamide] returned a melting point of 143 °C. For the same compound, the n-fold stimulation in data set [1] (concentration c 100 μM) was 2.8 n-fold.

For the compound `O=C(Nc1ccc(Br)cc1)c1cc(Cl)ccc1NS(=O)(=O)c1ccc(Cl)cc1` [Example 9, 5-Chloro-2-(4-chlorophenylsulfonylamino)-N-(4-bromophenyl)benzamide], the melting point amounted to 210 °C. Also, in data set [1] (concentration c 100 μM), the n-fold stimulation is listed as 1.6 n-fold.

Turning to `O=C(Nc1cccc(Cl)c1)c1cc(Cl)ccc1NS(=O)(=O)c1ccc(Cl)cc1` [Example 10, 5-Chloro-2-(4-chlorophenylsulfonylamino)-N-(3-chlorophenyl)benzamide], the melting point amounted to 228 °C. The same compound came in with a n-fold stimulation in data set [1] (concentration c 100 μM) of 1.7 n-fold.

For the compound `COc1ccc(NC(=O)c2cc(Cl)ccc2NS(=O)(=O)c2ccc(Cl)cc2)cc1` [Example 11, 5-Chloro-2-(4-chlorophenylsulfonylamino)-N-(4-methoxyphenyl)benzamide], the melting point was found to be 190 °C. Besides, in data set [1] (concentration c 100 μM), the n-fold stimulation was 1.8 n-fold.

`O=C(Nc1ccc2ccccc2c1)c1cc(Cl)ccc1NS(=O)(=O)c1ccc(Cl)cc1` [Example 12, 5-Chloro-2-(4-chlorophenylsulfonylamino)-N-(2-naphthyl)benzamide]: the melting point was found to be 211 °C. For the same compound, the n-fold stimulation in data set [1] (concentration c 25 μM) amounted to 2.8 n-fold.

With `O=C(Nc1cc(Cl)cc(Cl)c1)c1cc(Cl)ccc1NS(=O)(=O)c1ccc(F)cc1` [Example 13, 5-Chloro-2-(4-fluorophenylsulfonylamino)-N-(3,5-dichlorophenyl)benzamide], the melting point was 250 °C. In data set [1] (concentration c 100 μM), this compound gave a n-fold stimulation of 1.8 n-fold.

`CCOC(=O)c1ccc(NC(=O)c2cc(Cl)ccc2NS(=O)(=O)c2ccc(Cl)cc2)cc1` [Example 14, Ethyl 4-(5-chloro-2-(4-chlorophenylsulfonylamino)benzoylamino)benzoate] registered a melting point of 185 °C. This compound yielded a n-fold stimulation in data set [1] (concentration c 100 μM) of 1.7 n-fold.

In turn, `CS(=O)(=O)N(c1ccc(NC(=O)c2cc(Cl)ccc2NS(=O)(=O)c2ccc(Cl)cc2)cc1)S(C)(=O)=O` [Example 15, 5-Chloro-2-(4-chlorophenylsulfonylamino)-N-(4-(bismethylsulfonylamino)phenyl)benzamide] displayed a melting point of 235 °C. In data set [1] (concentration c 10 μM), this compound displayed a n-fold stimulation of 9.9 n-fold.

Turning to `CC(C)c1ccc(NC(=O)c2cc(Cl)ccc2NS(=O)(=O)c2ccc(Cl)cc2)cc1` [Example 16, 5-Chloro-2-(4-chlorophenylsulfonylamino)-N-(4-isopropylphenyl)benzamide], the melting point was 188 °C. The compound also registered a n-fold stimulation in data set [1] (concentration c 100 μM) of 4.1 n-fold.

On to `CCOC(=O)c1cc(NC(=O)c2cc(Cl)ccc2NS(=O)(=O)c2ccc(Cl)c(Cl)c2)ccc1Cl` [Example 18, Ethyl 2-chloro-5-(5-chloro-2-(3,4-dichlorophenylsulfonylamino)benzoylamino)benzoate], for which the melting point was found to be 202 °C. Further, the n-fold stimulation in data set [1] (concentration c 100 μM) is 3.2 n-fold.

As to `O=C(Nc1ccc(N2CCOCC2)cc1)c1cc(Cl)ccc1NS(=O)(=O)c1ccc(Cl)cc1` [Example 21, 5-Chloro-2-(4-chlorophenylsulfonylamino)-N-(4-(morpholin-4-yl)phenyl)benzamide], the melting point came to 228.5 °C. In addition, the n-fold stimulation in data set [1] (concentration c 50 μM) is given as 8 n-fold.

With `O=C(Nc1ccc(OCc2ccccc2)cc1)c1cc(Cl)ccc1NS(=O)(=O)c1ccc(Cl)cc1` [Example 23, 5-Chloro-2-(4-chlorophenylsulfonylamino)-N-(4-(benzyloxy)phenyl)benzamide], the melting point is 191 °C. In addition, in data set [1] (concentration c 25 μM), the n-fold stimulation is recorded as 2.2 n-fold.

Regarding `CC(=O)c1ccc(NC(=O)c2cc(Cl)ccc2NS(=O)(=O)c2ccc(Cl)cc2)cc1` [Example 24, 5-Chloro-2-(4-chlorophenylsulfonylamino)-N-(4-acetylphenyl)benzamide], the melting point was 226 °C. In data set [1] (concentration c 50 μM), the n-fold stimulation turned out to be 2.4 n-fold.
